According to patent US20160220569A1, “CDK4/6 Inhibitor Dosage Formulations For The Protection Of Hematopoietic Stem And Progenitor Cells During Chemotherapy” (G1 Therapeutics, Inc., priority 2015, published 2016):
Values joined by “and” are separate entries in the source; they are usually repeats but may differ in a detail not shown here. Equal values may be shown once. Read-outs that look alike come from different tables or passages of the source.

Key:
[1] = system: Target lesions; assay: Tumor response, Compound 1 with topotecan; format: in vivo, human; conditions: for Cycle 2 Target Lesion Sum: individual subjects
Protocol: In Cohort 2 there were 3 subjects who received 1.25 mg/m^2 of topotecan once daily on Days 1 to 5. In Cohort 3 there were 4 subjects who received 0.75 mg/m^2 of topotecan once daily on Days 1 to 5. […] Target lesions were summed and response tabulated as follows: […]

[2] = Repeat-dose toxicity in rats (IV 7 days, oral 14 days); format: in vivo
Protocol: The magnitude and/or duration of this effect differed among cell lineages but was dose-related in all lineages. Effects on hematopoiesis were readily monitored by peripheral blood cell counts and were reversible when dosing stopped.
In both species, the toxicity profile was similar and the repeat-dose toxicity studies identified no observed adverse effect levels (NOAELs). […] This IV NOAEL was the basis for selecting a starting dose of 6 mg/m^2 for the first clinical trial, which is 1/10th of the lowest safe dose level in any animal study.
In rats, the toxicity profile with oral administration was similar to that with IV administration, except that pulmonary macrophage accumulation occurred with oral administration for 14 days at ≧5 mg/kg (≧30 mg/m^2) but not with IV administration for 7 days at up to 25 mg/kg (≧150 mg/m^2). Based on this finding, the oral NOAEL was 2 mg/kg (≧12 mg/m^2).

[3] = Compound 1 PK dosed Days 1-3 with etoposide and carboplatin; format: in vivo, human
Protocol: Analysis of plasma concentration versus time data for calculation of standard pharmacokinetic (PK) parameters following intravenous infusion administration was conducted using Phoenix WinNonlin version 6.3 using a nominal infusion duration and scheduled blood sampling times.

[4] = Compound 1 200 mg/m^2 with topotecan, 2 to 4 cycles
[5] = 200 mg/m^2 with Etoposide and Carboplatin, Day 1, Max
[6] = 200 mg/m^2 with Etoposide and Carboplatin, Day 1, Min
[7] = 200 mg/m^2 with Etoposide and Carboplatin, Day 1, individual subjects
[8] = 200 mg/m^2 with Etoposide and Carboplatin, Day 3, Max
[9] = 200 mg/m^2 with Etoposide and Carboplatin, Day 3, Min
[10] = 200 mg/m^2 with Etoposide and Carboplatin, Day 3, individual subjects

## CN1CCN(c2ccc(Nc3ncc4cc5n(c4n3)C3(CCCCC3)CNC5=O)nc2)CC1 [Compound 1, 2′-((5-(4-methylpiperazin-1-yl)pyridin-2-yl)amino)-7′,8′-dihydro-6′H-spiro[cyclohexane-1,9′-pyrazino[1′,2′:1,5]pyrrolo[2,3-d]pyrimidin]-6′-one]
[1]; Compound 1 200 mg/m^2 followed by 1.25 mg/m^2 Topotecan
  Cycle 2 Target Lesion Sum: 22 and 123
[1]; Compound 1 200 mg/m^2 followed by .75 mg/m^2 Topotecan
  Cycle 2 Target Lesion Sum: 157
[1]; [4]
  subjects with partial responses: 3 subjects
  subjects with stable disease: 3 subjects
[2]; 7 days
  dose with clinically significant leukopenia: ≥ 150 mg/m^2
[2]; oral administration for 14 days
  dose with pulmonary macrophage accumulation: ≥ 5 mg/kg
[2]; rat, in vivo, IV, read-out: NOAEL for IV administration
  NOAEL at 7 days: 10 mg/kg
[2]; rat, in vivo, oral
  NOAEL at 14 days: 2 mg/kg
[3]; [5]
  AUCinf: 3320 ng·h/mL
  Cmax: 2170 ng/mL
  t½: 10.6 h
[3]; [6]
  AUC24.5: 1530 ng·h/mL
  AUCinf: 1650 ng·h/mL
  Cmax: 587 ng/mL
  t½: 6.29 h
[3]; [7]
  AUC24.5: 2850 ng·h/mL and 1930 ng·h/mL and 2010 ng·h/mL and 2520 ng·h/mL and 1530 ng·h/mL
  AUCinf: 2960 ng·h/mL and 3320 ng·h/mL and 2290 ng·h/mL and 2680 ng·h/mL and 1650 ng·h/mL
  Cmax: 2170 ng/mL and 742 ng/mL and 845 ng/mL and 1840 ng/mL and 587 ng/mL
  t½: 8.94 h and 10.6 h and 8.91 h and 7.09 h and 7.28 h
[3]; [8]
  AUCτ: 3300 ng·h/mL
  Cmax: 3360 ng/mL
[3]; [9]
  AUCτ: 2010 ng·h/mL
  Cmax: 355 ng/mL
  t½: 6.99 h
[3]; [10]
  AUCτ: 3300 ng·h/mL and 2010 ng·h/mL and 2630 ng·h/mL and 2610 ng·h/mL and 2890 ng·h/mL
  Cmax: 723 ng/mL and 355 ng/mL and 1190 ng/mL and 3360 ng/mL
[3]; Day 3, mean
  pre-dose concentration averaging: 20.6 ng/mL
[3]; human, plasma, intravenous, 200 mg/m2, 200 mg/m^2 with Etoposide and Carboplatin, Day 1, Geo. Mean, read-out: AUC24.5
  AUC: 2230 ng·h/mL
[3]; human, plasma, intravenous, 200 mg/m2, 200 mg/m^2 with Etoposide and Carboplatin, Day 1, Geo. Mean, read-out: AUCinf
  AUC(0-inf): 2470 ng·h/mL
[3]; human, plasma, intravenous, 200 mg/m2, 200 mg/m^2 with Etoposide and Carboplatin, Day 1, Geo. Mean, read-out: Cmax
  Cmax: 1070 ng/mL
[3]; human, plasma, intravenous, 200 mg/m2, 200 mg/m^2 with Etoposide and Carboplatin, Day 1, Geo. Mean, read-out: t½ (converted)
  half-life: 8.07 h
[3]; human, plasma, intravenous, 200 mg/m2, 200 mg/m^2 with Etoposide and Carboplatin, Day 1, Mean, read-out: AUCinf
  AUC(0-inf): 2530 ng·h/mL
[3]; human, plasma, intravenous, 200 mg/m2, 200 mg/m^2 with Etoposide and Carboplatin, Day 1, Mean, read-out: Cmax
  Cmax: 1200 ng/mL
[3]; human, plasma, intravenous, 200 mg/m2, 200 mg/m^2 with Etoposide and Carboplatin, Day 1, Mean, read-out: t½ (converted)
  half-life: 8.19 h
[3]; human, plasma, intravenous, 200 mg/m2, 200 mg/m^2 with Etoposide and Carboplatin, Day 1, Median, read-out: AUC24.5
  AUC: 2270 ng·h/mL
[3]; human, plasma, intravenous, 200 mg/m2, 200 mg/m^2 with Etoposide and Carboplatin, Day 1, Median, read-out: AUCinf
  AUC(0-inf): 2490 ng·h/mL
[3]; human, plasma, intravenous, 200 mg/m2, 200 mg/m^2 with Etoposide and Carboplatin, Day 1, Median, read-out: Cmax
  Cmax: 923 ng/mL
[3]; human, plasma, intravenous, 200 mg/m2, 200 mg/m^2 with Etoposide and Carboplatin, Day 1, Median, read-out: t½ (converted)
  half-life: 8.09 h
[3]; human, plasma, intravenous, 200 mg/m2, 200 mg/m^2 with Etoposide and Carboplatin, Day 1, individual subjects, read-out: AUC24.5
  AUC: 2860 ng·h/mL
[3]; human, plasma, intravenous, 200 mg/m2, 200 mg/m^2 with Etoposide and Carboplatin, Day 1, individual subjects, read-out: t½ (converted)
  half-life: 6.29 h
[3]; human, plasma, intravenous, 200 mg/m2, 200 mg/m^2 with Etoposide and Carboplatin, Day 3, Geo. Mean, read-out: AUCτ
  AUC: 2530 ng·h/mL
[3]; human, plasma, intravenous, 200 mg/m2, 200 mg/m^2 with Etoposide and Carboplatin, Day 3, Geo. Mean, read-out: Cmax
  Cmax: 1090 ng/mL
[3]; human, plasma, intravenous, 200 mg/m2, 200 mg/m^2 with Etoposide and Carboplatin, Day 3, Geo. Mean, read-out: t½ (converted)
  half-life: 8.95 h
[3]; human, plasma, intravenous, 200 mg/m2, 200 mg/m^2 with Etoposide and Carboplatin, Day 3, Mean, read-out: AUCτ
  AUC: 2570 ng·h/mL
[3]; human, plasma, intravenous, 200 mg/m2, 200 mg/m^2 with Etoposide and Carboplatin, Day 3, Mean, read-out: Cmax
  Cmax: 1380 ng/mL
[3]; human, plasma, intravenous, 200 mg/m2, 200 mg/m^2 with Etoposide and Carboplatin, Day 3, Mean, read-out: t½ (converted)
  half-life: 9.04 h
[3]; human, plasma, intravenous, 200 mg/m2, 200 mg/m^2 with Etoposide and Carboplatin, Day 3, Median, read-out: AUCτ
  AUC: 2620 ng·h/mL
[3]; human, plasma, intravenous, 200 mg/m2, 200 mg/m^2 with Etoposide and Carboplatin, Day 3, Median, read-out: Cmax
  Cmax: 1100 ng/mL
[3]; human, plasma, intravenous, 200 mg/m2, 200 mg/m^2 with Etoposide and Carboplatin, Day 3, Median, read-out: t½ (converted)
  half-life: 9.15 h
[3]; human, plasma, intravenous, 200 mg/m2, 200 mg/m^2 with Etoposide and Carboplatin, Day 3, individual subjects, read-out: t½ (converted)
  half-life: 9.27 h
[3]; human, plasma, intravenous, 200 mg/m2, 200 mg/m^2 with etoposide and carboplatin, Day 1, mean, read-out: AUCinf averaged
  AUC(0-inf): 2530 ng·h/mL
[3]; human, plasma, intravenous, 200 mg/m2, 200 mg/m^2 with etoposide and carboplatin, Day 1, mean, read-out: Cmax averaged
  Cmax: 1200 ng/mL
[3]; human, plasma, intravenous, 200 mg/m2, 200 mg/m^2 with etoposide and carboplatin, Day 1, mean, read-out: Half-lives averaged (converted)
  half-life: 8.19 h
[3]; human, plasma, intravenous, 200 mg/m2, 200 mg/m^2 with etoposide and carboplatin, Day 1, range, read-out: Half-lives range
  half-life: 6.29 to 10.6 h
[3]; human, plasma, intravenous, 200 mg/m2, 200 mg/m^2 with etoposide and carboplatin, Day 3, mean, read-out: AUCτ averaged
  AUC: 2570 ng·h/mL
[3]; human, plasma, intravenous, 200 mg/m2, 200 mg/m^2 with etoposide and carboplatin, Day 3, mean, read-out: Cmax averaging
  Cmax: 1380 ng/mL
[3]; human, plasma, intravenous, 200 mg/m2, 200 mg/m^2 with etoposide and carboplatin, Day 3, mean, read-out: Half-lives averaged (converted)
  half-life: 9.04 h
[3]; human, plasma, intravenous, 200 mg/m2, 200 mg/m^2 with etoposide and carboplatin, Day 3, range, read-out: Half-lives range
  half-life: 6.99 to 11 h
[3]; human, plasma, intravenous, Day 1, 4 subjects, mean, read-out: concentration at 24.5 hours after the start of infusion, averaging
  concentration at 24.5 h: 20 ng/mL
[3]; human, plasma, intravenous, Day 1, 4 subjects, range, read-out: concentration at 24.5 hours after the start of infusion, range
  concentration at 24.5 h: 11.3 to 35.9 ng/mL
[3]; human, plasma, intravenous, Day 3, mean, read-out: concentration at 24.5 hours after dosing, averaged
  concentration at 24.5 h: 24.6 ng/mL
[3]; human, plasma, intravenous, Day 3, range, read-out: concentration at 24.5 hours after dosing, range
  concentration at 24.5 h: 11.5 to 34.5 ng/mL
